A short description of assay [1]: Impact of fragrance ingredients on scalp malodour counteractancy of 80 fragrance compositions (Example 2 protocol, statistical presence). Particulars: series of 80 fragrance compositions.
Assay [2] is described as follows: Gas-phase evaluation of each fragrance ingredient alone against model scalp malodour, MiniVAS device, panel of 5 experts.
Setting [3] is: Table 3, air flow 50 ml/min, scale of 1-5 (1=barely noticeable, 5=very strong).

Consider `CCOC(=O)CC1(C)OCCO1` [ethyl 2-(2-methyl-1,3-dioxolan-2-yl)acetate], for which the “Impact on scalp MOC of fragrance composition” value (“Impact on scalp MOC” for short) in assay [1] (Table 3) was “Positive”. The molecule also gave an MO intensity in assay [2] (setting [3]) of 2.3.
On to `CC(=O)O[C@H]1CC2CC1[C@H]1CC=C[C@@H]21` (stereo partly drawn) [(3aR,6S,7aS)-3a,4,5,6,7,7a-hexahydro-1H-4,7-methanoinden-6-yl acetate], for which the “Impact on scalp MOC” value in assay [1] (Table 4) is “Negative”. This molecule also had an MO intensity in assay [2] (Table 4, air flow 50 ml/min, scale of 1-5) of 3.8.
With `CCCCCCC1CCC(=O)O1` (stereo not shown) [5-hexyloxolan-2-one], the “Impact on scalp MOC” value in assay [1] (Table 3) is reported as “Positive”. The molecule also returned an MO intensity in assay [2] (setting [3]) of 3.
As to `CC1(CO)CC1CC1CC2CC2(C)C1(C)C` (stereo not shown) [1-methyl-2-((1,2,2-trimethylbicyclo[3.1.0]hexan-3-yl)methyl)cyclopropyl)methanol], the “Impact on scalp MOC” value in assay [1] (Table 3) is “Positive”. The molecule further had an MO intensity in assay [2] (setting [3]) of 3.3.
For `CC1CCC2(CCC(=O)O2)CC1` (stereo not shown) [8-methyl-1-oxaspiro[4.5]decan-2-one] the same measures were “Positive” and 2.7.

For the origin of these results see US20260272797A1, “FRAGRANCE COMPOSITION” (GIVAUDAN SA, priority 2023, published 2026).
